Some test systems named below: NCI-H460; OVCAR-5; SNB-19; KM12; SN12C; ACHN; SK-OV-3; SF-539; CCRF-CEM; NCI-H23; SW-620; HL-60; HOP-92; A549; OVCAR-3; LXFL 529; SR; MCF7; NCI/ADR-RES; T47D.
Holding throughout (assay): NCI tumour cell line growth inhibition, 48 h

Each structure is given as a SMILES string.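 The compound was tested at five concentrations on cells cultured in 96-well plates, with a 48-hour exposure period. GI50: concentration for 50% inhibition of growth.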 Active and inactive are the calls of the source. Cut-off read from the data, not from the text of the source: active = GI50 up to about 1.1 µM and inactive = higher.

For `C=CCn1c(=O)n(CC=C)c(=O)n(CC=C)c1=O`, the GI50 with NCI-H460, in the assay on OVCAR-5, in the assay with SNB-19, with KM12, in the assay with SN12C and with ACHN was > 100 µM (inactive) throughout. Also, the GI50 in the assay on SK-OV-3, in the assay on SF-539, in the assay with CCRF-CEM, with NCI-H23, in the assay on SW-620 and in the assay on HL-60 was > 100 µM (inactive) each time. In addition, the GI50 in the assay with HOP-92, in the assay with A549, in the assay on OVCAR-3 and in the assay with LXFL 529 was > 100 µM (inactive) each time.
Regarding `COc1cc2c(cc1OC)C1Cc3ccc(OC)c(OC)c3C[N+]1([O-])CC2` (stereo not given), the GI50 in the assay on NCI-H460, in the assay with OVCAR-5, in the assay with SNB-19, with KM12, with SN12C and in the assay with ACHN was > 100 µM (inactive) throughout. The GI50 in the assay on SF-539, in the assay with CCRF-CEM, with NCI-H23, in the assay with SW-620, in the assay with A549 and in the assay on OVCAR-3 was > 100 µM (inactive) in each case. Also, the GI50 in the assay on LXFL 529 was > 100 µM (inactive).
With `Clc1ccc(C(n2cc(Br)cn2)n2cc(Br)cn2)cc1`, the GI50 is 16.1 µM (inactive) in the assay with NCI-H460; 16 µM (inactive) in the assay with OVCAR-5; > 10 µM (inactive) in the assay with SNB-19; 13.5 µM (inactive) in the assay with KM12; 16.8 µM (inactive) with SN12C; 14.5 µM (inactive) in the assay with ACHN. Moreover, the GI50 in the assay with SK-OV-3 is 35.1 µM (inactive); in the assay with SF-539, > 10 µM (inactive); in the assay with CCRF-CEM it was 21.3 µM (inactive); in the assay with NCI-H23 it was 17.9 µM (inactive); in the assay on SW-620, 17 µM (inactive); in the assay with HL-60, 17.8 µM (inactive). Further, the GI50 is 15 µM (inactive) with HOP-92, 14.7 µM (inactive) in the assay with A549, 14.1 µM (inactive) with OVCAR-3 and 14.9 µM (inactive) in the assay with LXFL 529.
As for `COC(=O)c1nn(C(=N)c2ccc(Cl)cc2)c2c1CCCCC2`, the GI50 in the assay with NCI-H460, in the assay on SR, with OVCAR-5, with SNB-19, in the assay with KM12 and with SN12C was > 100 µM (inactive) throughout. Moreover, the GI50 in the assay with ACHN, in the assay with SK-OV-3, in the assay on SF-539, in the assay on CCRF-CEM, with NCI-H23 and in the assay on SW-620 was > 100 µM (inactive) each time. Further, the GI50 in the assay with HL-60, with HOP-92, in the assay on A549 and in the assay on LXFL 529 was > 100 µM (inactive) throughout.
With `CCOP(=S)(OCC)Oc1ccc2c(c1)OC(=O)C1(Cl)C2(C)C2(Cl)C(=O)Oc3cc(OP(=S)(OCC)OCC)ccc3C12C` (stereo not given), the GI50 was 17.5 µM (inactive) with NCI-H460; 19 µM (inactive) with OVCAR-5; 4.8 µM (inactive) in the assay with SNB-19; 15.5 µM (inactive) in the assay on KM12; 19.2 µM (inactive) in the assay with SN12C; 22.4 µM (inactive) with ACHN. Further, the GI50 is 11.1 µM (inactive) in the assay on SF-539; 16.9 µM (inactive) in the assay on CCRF-CEM; > 10 µM (inactive) in the assay on NCI-H23; 16.7 µM (inactive) with SW-620; 14.7 µM (inactive) in the assay with HL-60; 25.5 µM (inactive) in the assay with A549. For the same molecule, the GI50 in the assay with OVCAR-3 was 14.6 µM (inactive); with LXFL 529, 8.67 µM (inactive).
On to `COc1ccc2[nH]c3c(C)c4cnccc4c(C)c3c2c1`, for which the GI50 is 1.78 µM (inactive) in the assay with NCI-H460; 3.57 µM (inactive) with SR; 3.11 µM (inactive) in the assay on OVCAR-5; 1.52 µM (inactive) in the assay with MCF7; > 10 µM (inactive) in the assay with SNB-19; 1.31 µM (inactive) with KM12. In addition, the GI50 with SN12C is 2.24 µM (inactive); in the assay with ACHN it was 2.01 µM (inactive); in the assay on SK-OV-3, > 10 µM (inactive); in the assay with SF-539, 1.88 µM (inactive); with NCI/ADR-RES, 1.22 µM (inactive); in the assay on CCRF-CEM, 2.07 µM (inactive). In addition, the GI50 with NCI-H23 is 6.25 µM (inactive); in the assay with SW-620, 0.964 µM (active); in the assay with HL-60 it was 2.28 µM (inactive); in the assay on T47D, > 10 µM (inactive); in the assay with HOP-92, 5.4 µM (inactive); in the assay on A549 it was 1.85 µM (inactive). In addition, the GI50 in the assay with OVCAR-3 was 1.14 µM (inactive).
With `Cn1nc(S(N)(=O)=O)s/c1=N/C(N)=S`, the GI50 with NCI-H460, with SR, in the assay on OVCAR-5, in the assay with MCF7, in the assay on SNB-19 and with KM12 was > 100 µM (inactive) each time. The GI50 in the assay with SN12C, in the assay on ACHN, in the assay on SK-OV-3, with SF-539, in the assay with NCI/ADR-RES and in the assay on CCRF-CEM was > 100 µM (inactive) throughout. Besides, the GI50 in the assay on NCI-H23, with SW-620, in the assay on HL-60, with T47D, with HOP-92 and in the assay on A549 was > 100 µM (inactive) each time. Moreover, the GI50 in the assay with OVCAR-3 is > 100 µM (inactive).
As for `C=CC(=O)NCCC(=O)OCn1cc(F)c(=O)[nH]c1=O`, the GI50 in the assay with NCI-H460 is 0.434 µM (active); in the assay on SR, 2.12 µM (inactive); in the assay with OVCAR-5, 20.6 µM (inactive); in the assay on MCF7, 1.2 µM (inactive); in the assay on SNB-19, 39.4 µM (inactive); in the assay with KM12, 5.48 µM (inactive). Besides, the GI50 in the assay with SN12C was 0.838 µM (active); with ACHN it was 5.02 µM (inactive); with SK-OV-3, 16.3 µM (inactive); with SF-539, 2.65 µM (inactive); in the assay with NCI/ADR-RES it was 27 µM (inactive); in the assay with CCRF-CEM, 16.7 µM (inactive). For the same molecule, the GI50 was 7.01 µM (inactive) in the assay with NCI-H23; 17.2 µM (inactive) in the assay on SW-620; 0.425 µM (active) in the assay on HL-60; 83.2 µM (inactive) in the assay on T47D; 8.49 µM (inactive) in the assay with HOP-92; 2.36 µM (inactive) in the assay on A549. Moreover, the GI50 with OVCAR-3 was 10.5 µM (inactive).
Turning to `COC1=NCc2ccccc2-c2ccccc21`, the GI50 in the assay on NCI-H460, with SNB-19, in the assay with KM12, in the assay with SN12C, in the assay on ACHN and in the assay on SK-OV-3 was > 100 µM (inactive) throughout. Moreover, the GI50 in the assay on SF-539, in the assay on CCRF-CEM, with NCI-H23, with HL-60, in the assay on A549 and in the assay on OVCAR-3 was > 100 µM (inactive) each time. In the assay on LXFL 529, the GI50 was > 10 µM (inactive).
Take `CN(C)C(=S)/N=c1\ss/c(=N\S(=O)(=O)c2ccccc2)n1N(C)C`: the GI50 in the assay with NCI-H460 is > 100 µM (inactive); in the assay with SR, 41.2 µM (inactive); in the assay on SNB-19, > 100 µM (inactive); in the assay with KM12, > 100 µM (inactive); with SN12C, > 100 µM (inactive); in the assay with ACHN, > 100 µM (inactive). In addition, the GI50 was > 100 µM (inactive) in the assay on SK-OV-3; > 100 µM (inactive) in the assay on SF-539; 37.9 µM (inactive) in the assay with CCRF-CEM; > 100 µM (inactive) in the assay on SW-620; > 100 µM (inactive) in the assay on HL-60; > 100 µM (inactive) with A549. Besides, the GI50 in the assay with OVCAR-3 and in the assay on LXFL 529 was > 100 µM (inactive) in each case.
As to `CC12C(=CC(=O)CC1SCCS(=O)(=O)O)C(C#N)=C(N)N2c1ccc(Cl)c(Cl)c1` (stereo not given), the GI50 is 10 µM (inactive) in the assay on NCI-H460; > 100 µM (inactive) in the assay with SR; > 100 µM (inactive) in the assay on SNB-19; > 100 µM (inactive) with KM12; > 100 µM (inactive) in the assay on SN12C; > 100 µM (inactive) with ACHN. For the same molecule, the GI50 in the assay with SK-OV-3 was > 100 µM (inactive); in the assay with SF-539, > 100 µM (inactive); with CCRF-CEM it was > 100 µM (inactive); in the assay on NCI-H23, > 100 µM (inactive); in the assay with SW-620, 78.9 µM (inactive); in the assay on HL-60, > 100 µM (inactive). Moreover, the GI50 in the assay with HOP-92 is 30.6 µM (inactive); with A549, > 100 µM (inactive); in the assay with OVCAR-3, > 100 µM (inactive); in the assay with LXFL 529, > 100 µM (inactive).
As for `Cc1ccc(-n2c3nc(=O)n(C)c(=O)c-3nc3ccccc32)c(C)c1`, the GI50 is 3.49 µM (inactive) in the assay on NCI-H460; 18.7 µM (inactive) in the assay on OVCAR-5; 5.28 µM (inactive) in the assay with SNB-19; 8.18 µM (inactive) with KM12; 10.9 µM (inactive) in the assay with SN12C; 3.58 µM (inactive) with ACHN. Also, the GI50 with SK-OV-3 was 35.1 µM (inactive); in the assay with SF-539, 13.2 µM (inactive); in the assay with CCRF-CEM it was 14.8 µM (inactive); in the assay on NCI-H23, 1.9 µM (inactive); in the assay with SW-620, 5.57 µM (inactive); in the assay with HL-60, 6.49 µM (inactive). Moreover, the values for the GI50 with A549, in the assay on OVCAR-3 and with LXFL 529 were 4.74 µM (inactive), 2.5 µM (inactive) and 11.3 µM (inactive), respectively.

Values taken from ChEMBL document CHEMBL1201862, “PubChem BioAssay data set” (2004).
